Data published in patent US12667560B2, “Co-administration of mirdametinib and lifirafenib for use in treating cancers” (BeiGene, Ltd., priority 2020, dated 2026).
Structures can show the parent of a compound that is named as a salt.

Tested on: subcutaneous Calu-6 tumors which harbor a K-RAS mutation
Experiment: Efficacy study in Calu-6 K-RAS mutated human xenograft lung adenocarcinoma model
Type: in vivo, Balb/c nude mice
Details: Compound B maleate alone, 2.5 mg/kg (free base) p.o. BID, Group 2
Description: To determine the effects of Compound B Maleate and Compound A, alone or in combination, on growth of subcutaneous Calu-6 tumors which harbor a K-RAS mutation in Balb/c nude mice in an Efficacy Study.
Experimental designs for the Efficacy study are illustrated in Table 2.
Each mouse was inoculated subcutaneously at the right flank with Calu-6 tumor cells (5×10^6 cells in 0.1 ml 50% Matrigel® in MEM). Tubes containing suspended cells and syringes were kept on ice to avoid solidification of Matrigel®. 2× overage was implemented for cell injection. When mean tumor volume reached the indicated sizes in Table 2, animals were randomly assigned to the indicated groups in Table 2 and received the first dosing. […]
Tumor volumes and mouse body weights were measured three times weekly after tumors became palpable and before randomization and grouping. Afterwards, tumor volumes and mouse body weights were measured twice weekly to termination, in two dimensions using a caliper, and the tumor volumes were expressed in mm^3 using the formula: V=0.5 L×W^2, where L and W were the long and short diameters of the tumor, respectively. The TGI value for the drug A-treated group at Day X was calculated as following: TGI (%)={1−[mTV(drug at Day X)−mTV(drug at Day 0)]/[mTV(veh at Day X)−mTV(veh at Day 0)]}×100, where mTV represented mean tumor volume. […]

`O=C1CCc2c(Oc3ccc4c(c3)[C@@H]3[C@H](C4)[C@H]3c3nc4ccc(C(F)(F)F)cc4[nH]3)ccnc2N1` [Compound B maleate] was tested, and the “inhibition of Calu-6 tumor growth compared to the vehicle control” value was “significant inhibition”.
